Experimental findings from patent US7994185B2, “Benzene sulfonamide thiazole and oxazole compounds” (Glaxo Smith Kline LLC, priority 2008, dated 2011) are described below.

Counter-ions that a name gives are not always drawn. Like-named read-outs stand apart in the source and are kept apart here. A value given as a limit tells only on which side of the number the result lay.

Test [1] addresses T1, BRAFV600E full-length (amino acids 2-766) (Homo sapiens, UniProt P15056, V600E).
T1 construct: His6-tagged BRAFV600E full-length (amino acids 2-766); His6; made in house; host or cells: baculovirus expression system (insect cells)
The experiment in a line: B-Raf Accelerated MEK ATPase assay (BRAMA). The test is classed as biochemical. Conditions: categorized. The essentials: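 Coupled-enzyme readout: ADP generated by MEK-mediated ATP hydrolysis, uncoupled from ERK phosphorylation, is linked to NADH oxidation through pyruvate kinase and lactate dehydrogenase.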

The test system of test [2] is Human melanoma cancer cells (SK-MEL-28). The experiment in a line: Cell growth inhibition assay (CellTiter-Glo), SK-MEL-28. The test is classed as cell-based. A general note: In ATP-based viability assays light output follows the ATP content of the culture.
Test [3] relates to Human colon tumor cells (Colo205). The experiment in a line: Cell growth inhibition assay (CellTiter-Glo), Colo205. The test is classed as cell-based. The essentials: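 Read-out was CellTiter-Glo luminescence (total ATP as a cell-number surrogate), expressed as % inhibition against DMSO vehicle wells. Before that, cells grown in RPMI/10% FBS were treated for 3 days at 37 °C with ten 1:3-spaced compound concentrations, final DMSO 0.2%.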

Where [4] appears, read: B-Raf pIC50, Table 1b, later runs, average pIC50 for the one or more runs.
Where [5] appears, read: SK-MEL-28, Table 3b, later runs, average for the one or more runs, categorized, read-out: IC50 for SK-MEL-28.
Where [6] appears, read: COLO 205, Table 2b, later runs, average for the one or more runs, categorized, read-out: IC50 for Colo205.
Where [7] appears, read: Table 1b, later runs, average pIC50 for the one or more runs, read-out: B-Raf pIC50 (converted).
Setting [8] is: B-Raf Activity, Table 1a, highest pIC50 for the one or more runs.
Where [9] appears, read: SK-MEL-28, 72 h, Table 3a, 3 days incubation, read-out: Activity in SK-MEL-28 Tumor Cells.
The mark [10] stands for this setting: COLO 205, 72 h, Table 2a, 3 days incubation, read-out: Activity in Colo205 Tumor Cells.

T1 sequence (P15056 2-766 V600E): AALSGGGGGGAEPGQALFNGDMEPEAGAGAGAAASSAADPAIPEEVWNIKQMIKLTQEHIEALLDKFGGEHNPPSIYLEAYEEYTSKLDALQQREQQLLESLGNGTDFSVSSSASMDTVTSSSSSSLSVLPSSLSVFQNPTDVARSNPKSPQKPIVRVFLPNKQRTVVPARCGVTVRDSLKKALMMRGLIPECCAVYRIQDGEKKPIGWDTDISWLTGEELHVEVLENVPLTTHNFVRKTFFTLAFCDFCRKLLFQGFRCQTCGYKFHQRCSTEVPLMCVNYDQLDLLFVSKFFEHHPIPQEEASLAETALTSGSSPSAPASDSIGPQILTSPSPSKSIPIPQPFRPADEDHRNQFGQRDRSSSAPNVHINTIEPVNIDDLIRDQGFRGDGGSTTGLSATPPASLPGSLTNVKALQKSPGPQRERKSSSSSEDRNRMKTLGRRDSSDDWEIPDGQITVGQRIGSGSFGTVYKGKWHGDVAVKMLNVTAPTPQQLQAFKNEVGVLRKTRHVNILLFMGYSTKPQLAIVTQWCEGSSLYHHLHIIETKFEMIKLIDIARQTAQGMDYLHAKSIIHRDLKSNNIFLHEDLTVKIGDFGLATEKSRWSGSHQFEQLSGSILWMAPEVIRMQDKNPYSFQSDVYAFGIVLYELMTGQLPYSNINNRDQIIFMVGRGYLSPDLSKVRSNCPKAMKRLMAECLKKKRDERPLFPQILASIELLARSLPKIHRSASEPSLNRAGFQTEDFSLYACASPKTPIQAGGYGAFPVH

Take `Nc1nccc(-c2sc(C3CCOCC3)nc2-c2cccc(NS(=O)(=O)c3cnccn3)c2F)n1` [Example 280, N-{3-[5-(2-amino-4-pyrimidinyl)-2-(tetrahydro-2H-pyran-4-yl)-1,3-thiazol-4-yl]-2-fluorophenyl}-2-pyrazinesulfonamide]: the IC50 in test [1] (setting [4]) was no more than 3.16 nM; in test [2] (setting [5]), 100 to 1000 nM; in test [3] (setting [6]), 100 to 1000 nM.
As to `Cn1cc(S(=O)(=O)Nc2cccc(-c3nc(C4CCOCC4)sc3-c3ccnc(N)n3)c2F)cn1` [Example 286, N-{3-[5-(2-amino-4-pyrimidinyl)-2-(tetrahydro-2H-pyran-4-yl)-1,3-thiazol-4-yl]-2-fluorophenyl}-1-methyl-1H-pyrazole-4-sulfonamide hydrochloride], the IC50 in test [1] (setting [7]) was 3.16 to 31.6 nM; in test [2] (setting [5]), 100 to 1000 nM; in test [3] (setting [6]), 100 to 1000 nM.
Consider `Nc1nccc(-c2sc(C3CCC3)nc2-c2cccc(NS(=O)(=O)c3c(F)cccc3F)c2F)n1` [Example 118], for which the IC50 in test [1] (setting [8]) was less than 100 nM; in test [1] (setting [4]), no more than 3.16 nM; in test [2] (setting [9]), 100 to 1000 nM; in test [2] (setting [5]), 100 to 1000 nM; in test [3] (setting [10]), 100 to 1000 nM; in test [3] (setting [6]), 100 to 1000 nM.
With `CC(C)c1nc(-c2ccc(F)c(NS(=O)(=O)c3cc(F)ccc3F)c2)c(-c2ccnc(NCCCN3CCCC3=O)n2)s1` [Example 184], the IC50 in test [1] (setting [8]) is less than 100 nM; in test [1] (setting [7]), 3.16 to 31.6 nM; in test [2] (setting [9]) it was less than 100 nM; in test [2] (setting [5]) it was less than 100 nM; in test [3] (setting [10]) it was less than 100 nM; in test [3] (setting [6]) it was less than 100 nM.
On to `CC(C)c1nc(-c2cccc(NS(=O)(=O)c3cc(F)ccc3F)c2F)c(-c2ccnc(NCCNC(=O)CO)n2)s1` [Example 192], for which the IC50 in test [1] (setting [8]) was less than 100 nM; in test [1] (setting [4]), no more than 3.16 nM; in test [2] (setting [9]) it was 100 to 1000 nM; in test [2] (setting [5]), less than 100 nM; in test [3] (setting [10]) it was 100 to 1000 nM; in test [3] (setting [6]), 100 to 1000 nM.
Consider `CC(C)c1nc(-c2cccc(NS(=O)(=O)c3cc(F)ccc3F)c2F)c(-c2ccnc(NCCN3CCCC3=O)n2)s1` [Example 190], for which the IC50 in test [1] (setting [8]) was less than 100 nM; in test [1] (setting [4]) it was no more than 3.16 nM; in test [2] (setting [9]), less than 100 nM; in test [2] (setting [5]), less than 100 nM; in test [3] (setting [10]), less than 100 nM; in test [3] (setting [6]), less than 100 nM.
For the molecule `CC(C)(C)c1nc(-c2ccc(F)c(NS(=O)(=O)c3c(F)cccc3F)c2)c(-c2ccnc(N[C@H]3CC[C@H](NS(C)(=O)=O)CC3)n2)s1` [Example 16, N-(5-{2-(1,1-Dimethylethyl)-5-[2-({trans-4 [(methylsulfonyl)amino]cyclohexyl}amino)-4-pyrimidinyl]-1,3-thiazol-4-yl}-2-fluorophenyl)-2,6-difluorobenzenesulfonamide], the IC50 in test [1] (setting [8]) was less than 100 nM; in test [1] (setting [7]), 3.16 to 31.6 nM; in test [2] (setting [9]) it was less than 100 nM; in test [2] (setting [5]), less than 100 nM; in test [3] (setting [10]), less than 100 nM; in test [3] (setting [6]) it was less than 100 nM.
As to `Cc1csc(S(=O)(=O)Nc2cccc(-c3nc(C(C)(C)C)sc3-c3ccnc(N)n3)c2F)c1` [Example 235, N-{3-[5-(2-amino-4-pyrimidinyl)-2-(1,1-dimethylethyl)-1,3-thiazol-4-yl]-2-fluorophenyl}-4-methyl-2-thiophenesulfonamide], the IC50 was 3.16 to 31.6 nM in test [1] (setting [7]), less than 100 nM in test [2] (setting [5]) and less than 100 nM in test [3] (setting [6]).
For `CC(C)c1nc(-c2ccc(F)c(NS(=O)(=O)c3cc(F)ccc3F)c2)c(-c2ccnc(NC3CCN(S(C)(=O)=O)CC3)n2)s1` [Example 75, 2,5-Difluoro-N-{2-fluoro-5-[2-(1-methylethyl)-5-(2-{[1-(methylsulfonyl)-4-piperidinyl]amino}-4-pyrimidinyl)-1,3-thiazol-4-yl]phenyl}benzenesulfonamide], the IC50 in test [1] (setting [8]) was less than 100 nM; in test [1] (setting [4]), no more than 3.16 nM; in test [2] (setting [9]), less than 100 nM; in test [2] (setting [5]), less than 100 nM; in test [3] (setting [10]) it was less than 100 nM; in test [3] (setting [6]), less than 100 nM.
Turning to `CC(C)c1nc(-c2ccc(F)c(NS(=O)(=O)c3cc(F)ccc3F)c2)c(-c2ccnc(N[C@H]3CCCN(C(=O)OC(C)(C)C)C3)n2)s1` [Example 133], the IC50 in test [1] (setting [8]) was 100 to 1000 nM; in test [1] (setting [4]), 31.6 to 1000 nM; in test [2] (setting [9]), greater than 1000 nM; in test [2] (setting [5]) it was 1000 to 10000 nM; in test [3] (setting [10]), greater than 1000 nM; in test [3] (setting [6]) it was 1000 to 10000 nM.
As for `CNc1nccc(-c2sc(C(C)C)nc2-c2ccc(F)c(NS(=O)(=O)c3cc(F)ccc3F)c2)n1` [Example 73, 2,5-Difluoro-N-{2-fluoro-5-[5-[2-(methylamino)-4-pyrimidinyl]-2-(1-methylethyl)-1,3-thiazol-4-yl]phenyl}benzenesulfonamide], the IC50 in test [1] (setting [8]) is less than 100 nM; in test [1] (setting [7]), 3.16 to 31.6 nM; in test [2] (setting [9]), greater than 1000 nM; in test [2] (setting [5]), 1000 to 10000 nM; in test [3] (setting [10]), greater than 1000 nM; in test [3] (setting [6]) it was 1000 to 10000 nM.
As for `Cn1ccc(S(=O)(=O)Nc2cccc(-c3nc(C4CCOCC4)sc3-c3ccnc(N)n3)c2F)c1` [Example 285, N-{3-[5-(2-amino-4-pyrimidinyl)-2-(tetrahydro-2H-pyran-4-yl)-1,3-thiazol-4-yl]-2-fluorophenyl}-1-methyl-1H-pyrrole-3-sulfonamide hydrochloride], the values for the IC50 in test [1] (setting [4]), in test [2] (setting [5]) and in test [3] (setting [6]) were 31.6 to 1000 nM, 1000 to 10000 nM and 100 to 1000 nM, respectively.
As to `CC(C)Nc1nccc(-c2sc(N3CCOCC3)nc2-c2cccc(NS(=O)(=O)c3c(F)cccc3F)c2F)n1` [Example 136], the IC50 is less than 100 nM in test [1] (setting [8]); 3.16 to 31.6 nM in test [1] (setting [7]); 100 to 1000 nM in test [2] (setting [9]); 100 to 1000 nM in test [2] (setting [5]); 100 to 1000 nM in test [3] (setting [10]); 100 to 1000 nM in test [3] (setting [6]).
As to `Cc1nccc(-c2sc(N3CCOCC3)nc2-c2cccc(NS(=O)(=O)c3cc(F)ccc3F)c2Cl)n1` [Example 28, N-{2-Chloro-3-[5-(2-methyl-4-pyrimidinyl)-2-(4-morpholinyl)-1,3-thiazol-4-yl]phenyl}-2,5-difluorobenzenesulfonamide], the IC50 in test [1] (setting [8]) was less than 100 nM; in test [1] (setting [7]), 3.16 to 31.6 nM; in test [2] (setting [9]), less than 100 nM; in test [2] (setting [5]), less than 100 nM; in test [3] (setting [10]), less than 100 nM; in test [3] (setting [6]) it was less than 100 nM.
Regarding `CC(=O)NCCCNc1nccc(-c2sc(C(C)C)nc2-c2cccc(NS(=O)(=O)c3cc(F)ccc3F)c2F)n1` [Example 194], the IC50 was less than 100 nM in test [1] (setting [8]); no more than 3.16 nM in test [1] (setting [4]); less than 100 nM in test [2] (setting [9]); less than 100 nM in test [2] (setting [5]); less than 100 nM in test [3] (setting [10]).
For the molecule `CC(C)c1nc(-c2ccc(F)c(NS(=O)(=O)c3c(F)cccc3F)c2)c(-c2ccnc(NCC3CC3)n2)s1` [Example 6, N-{5-[5-{2-[(Cyclopropylmethyl)amino]-4-pyrimidinyl}-2-(1-methylethyl)-1,3-thiazol-4-yl]-2-fluorophenyl}-2,6-difluorobenzenesulfonamide], the IC50 is less than 100 nM in test [1] (setting [8]); 31.6 to 1000 nM in test [1] (setting [4]); greater than 1000 nM in test [2] (setting [9]); 1000 to 10000 nM in test [2] (setting [5]); greater than 1000 nM in test [3] (setting [10]); 1000 to 10000 nM in test [3] (setting [6]).
